Legend:
ALDH1A1 = target: T1, ALDH1A1 (Homo sapiens, UniProt P00352); assay: Selectivity biochemical assay, NAD(P)H-Glo Detection System
T1 construct: His-tag; made in house; host or cells: E. coli Rosetta (DE3)
T1 sequence (P00352 1-501): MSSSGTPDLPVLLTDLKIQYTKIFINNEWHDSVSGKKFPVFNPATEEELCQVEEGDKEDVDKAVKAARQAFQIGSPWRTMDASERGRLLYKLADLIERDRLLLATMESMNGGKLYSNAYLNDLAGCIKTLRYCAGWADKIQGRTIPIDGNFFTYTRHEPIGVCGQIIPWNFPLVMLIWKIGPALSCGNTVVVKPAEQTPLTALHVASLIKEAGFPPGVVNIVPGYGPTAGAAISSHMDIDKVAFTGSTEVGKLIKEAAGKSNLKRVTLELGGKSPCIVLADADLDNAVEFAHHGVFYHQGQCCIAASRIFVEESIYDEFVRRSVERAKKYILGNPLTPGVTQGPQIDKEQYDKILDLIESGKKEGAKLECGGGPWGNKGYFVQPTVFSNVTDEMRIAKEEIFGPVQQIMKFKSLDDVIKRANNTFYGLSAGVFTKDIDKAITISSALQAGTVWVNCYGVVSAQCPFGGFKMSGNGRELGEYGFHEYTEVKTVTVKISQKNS
Text: (§1) Cloning: Open reading frames corresponding to the protein coding sequences of full length human ALDH1A1 (Uniprot ID P00352), ALDH1A2 (094788) and ALDH1A3 (P47895) were polymerase chain reaction (PCR) amplified from human cDNA and inserted into the multi-cloning sites of the commercially available (Novagen) E. coli expression vectors pET47b (ALDH1A1, EcoRI restriction site; ALDH1A2, BamHI and EcoRI sites) or pET28a (ALDH1A3, NdeI and BamHI sites), using standard molecular genetic techniques. Recombinant DNA products were sequence verified prior to use in expression studies.
(§2) Expression: Expression constructs were transformed into the E. coli strain Rosetta (DE3) (Merck) and individual colonies used to inoculate 10 mL lysogen broth (LB) medium supplemented with kanamycin and chloramphenicol at 50 μg/mL and 34 μg/mL, respectively. Cultures were grown to saturation overnight at 37° C., prior to being used to sub-inoculate fresh 1 L LB medium cultures (plus antibiotics, as before). 1 L cultures were grown at 37° C., 200 rpm, throughout the day until the optical density at 600 nm (OD600) reached ˜0.8, at which point growth temperature was reduced to 18° C. and 1 mM isopropyl β-d-1-thiogalacto pyranoside (IPTG) added to induce protein expression.
(§3) Cultures were left overnight (at least 16 h) under these conditions and the following day harvested by centrifugation (4000 G, 10 minutes). Culture supernatant was discarded and cell pellets stored at −80° C. until further processing.
(§4) Purification: Cell pellets were thawed on ice, re-suspended in Ni Affinity Buffer A (20 mM HEPES pH 7.5, 300 mM NaCl, 20 mM imidazole, 1 mM tris(2-carboxyethyl)phosphine (TCEP)) with protease inhibitors (cOmplete Ultra protease inhibitor, Roche), and lysed by sonication. Lysates were clarified by centrifugation at 18,000 G, 4° C., for 40 minutes, and loaded directly onto a pre-equilibrated (Buffer A) 5 mL HisTrap Fast Flow column (GE Healthcare) by way of an AKTA Fast Protein Liquid Chromatography (FPLC) system. The column was sequentially treated with 6 column volumes (CV) 100% Buffer A, 8 CV of 90% Buffer A:10% Buffer B (20 mM 4-(2-hydroxyethyl)-1-piperazineethanesulfonic acid (HEPES) pH 7.5, 300 mM NaCl, 500 mM imidazole, 1 mM TCEP) and finally a linear gradient from 10-70% Buffer B over 8 CV to elute recombinant His-tagged protein. Relevant fractions (as measured by 280 nm absorbance) collected during elution were pooled and subjected to further purification by size exclusion chromatography (Superdex 200 26/600, GE Healthcare, running buffer 20 mM 2-(carbamoylmethylamino)ethanesulfonic acid (ACES) pH 7.5, 1 mM TCEP). Relevant fractions from this step were pooled, aliquoted, and stored at −80° C. until required for compound profiling assays.
(§5) Materials: ALDH2 was purchased from Abnova. Tris(hydroxymethyl)aminomethane (Tris) was purchased from MP Biomedicals. TCEP, ethylenediaminetetraacetic acid (EDTA), propionaldehyde, DMSO and Tween-20 were purchased from Sigma. Nicotinamide adenine dinucleotide (NAD) was obtained from Abcam. The NAD(P)H-Glo™ Detection System was purchased from Promega. White, non-binding surface, 384 well plates were supplied by Corning (#3574).
(§6) Method: Inhibition of ALDH1A3 was assessed using the NAD(P)H-Glo™ Detection System (Cat. No. G9062) from Promega. This assay detects the production of NADH from NAD by ALDH1A3 via the coupled enzymatic conversion of a proluciferin reductase substrate to generate a luminescent signal. Inhibition of ALDH1A3 by small molecule inhibitors will result in reduction or abrogation of luminescence signal increase above background. Inhibition of ALDH1A1, ALDH1A2 and ALDH2 (selectivity assays) were assessed using the same assay.
(§7) Compounds were dosed into Corning 384 well assay plates using an Echo acoustic dispenser to give 10 point curves in a 3-fold dilution series. Compounds were dispensed from a 20 mM DMSO stock and initially screened at a top concentration of 20 μM (ALDH1A3) or 250 μM (ALDH1A1, ALDH1A2 & ALDH2). […]

ALDH1A3 = target: T2, ALDH1A3 (Homo sapiens, UniProt P47895); assay: Primary biochemical assay, NAD(P)H-Glo Detection System; parameters: His-tag; made in house; host or cells: E. coli Rosetta (DE3); settings: 30 min pre-incubation, propionaldehyde and NAD at Km
T2 sequence (P47895 1-512): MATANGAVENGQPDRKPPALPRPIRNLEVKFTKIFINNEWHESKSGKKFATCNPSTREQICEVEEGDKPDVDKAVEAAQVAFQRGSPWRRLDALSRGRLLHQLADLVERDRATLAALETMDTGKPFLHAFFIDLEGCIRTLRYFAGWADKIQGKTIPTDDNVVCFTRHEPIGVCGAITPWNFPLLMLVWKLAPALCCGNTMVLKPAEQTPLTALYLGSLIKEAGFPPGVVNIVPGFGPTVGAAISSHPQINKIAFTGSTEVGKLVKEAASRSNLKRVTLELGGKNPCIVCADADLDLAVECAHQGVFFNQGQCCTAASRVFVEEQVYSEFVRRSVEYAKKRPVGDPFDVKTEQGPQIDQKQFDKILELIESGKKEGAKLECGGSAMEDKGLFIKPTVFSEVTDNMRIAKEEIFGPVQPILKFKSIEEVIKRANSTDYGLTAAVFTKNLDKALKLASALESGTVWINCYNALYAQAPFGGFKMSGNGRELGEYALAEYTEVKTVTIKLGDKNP
Text: as §1, §2, §3, §4, §5, §6, §7

Row | Structure (SMILES) | IC50 (ALDH1A1) | IC50 (ALDH1A3)
1 | CN(CCOc1ccc2c(c1)CCC(=O)N2)Cc1cnn(C)c1 [ALDHI-3009, 6-[2-[methyl-[(1-methylpyrazol-4-yl)methyl]amino]ethoxy]-3,4-dihydro-1H-quinolin-2-one] | 10 to 100 µM | 1 to 10 µM
2 | CC(C)C1Oc2cc(OCCN3CCCC3c3cccc(F)c3)ccc2NC1=O (stereo not shown) [ALDHI-2049, 7-[2-[2-(3-fluorophenyl)pyrrolidin-1-yl]ethoxy]-2-isopropyl-4H-1,4-benzoxazin-3-one] | ≥ 100 µM | 1 to 10 µM
3 | CN(CCOc1ccc2c(c1)CCC(=O)N2)Cc1ccncc1 [ALDHI-3014, 6-[2-[methyl(4-pyridylmethyl)amino]ethoxy]-3,4-dihydro-1H-quinolin-2-one] | ≥ 100 µM | 1 to 10 µM
4 | O=C1CCc2cc(NC(=O)c3scnc3-c3cc(F)cc(F)c3)ccc2N1 [ALDHI-1024, 4-(3,5-difluorophenyl)-N-(2-oxo-3,4-dihydro-1H-quinolin-6-yl)thiazole-5-carboxamide] | ≥ 100 µM | < 0.1 µM
5 | O=C1CCc2cc(NC(=O)c3scnc3-c3cccc(C(F)(F)F)c3)ccc2N1 [ALDHI-1015, N-(2-oxo-3,4-dihydro-1H-quinolin-6-yl)-4-[3-(trifluoromethyl)phenyl]thiazole-5-carboxamide] | ≥ 100 µM | 1 to 10 µM
6 | CCCC1Oc2cc(OCCN3CCCC3c3cccc(F)c3)ccc2NC1=O (stereo not shown) [ALDHI-2047, 7-[2-[2-(3-fluorophenyl)pyrrolidin-1-yl]ethoxy]-2-propyl-4H-1,4-benzoxazin-3-one] | ≥ 100 µM | 1 to 10 µM
7 | O=C1CCc2cc(OCCN3CCNCC3c3ccccc3)ccc2N1 (stereo not shown) [ALDHI-2036, 6-[2-(2-phenylpiperazin-1-yl)ethoxy]-3,4-dihydro-1H-quinolin-2-one] | ≥ 100 µM | 1 to 10 µM
8 | Cn1cccc1C1CCCN1CCOc1ccc2c(c1)CCC(=O)N2 (stereo not shown) [ALDHI-2017, 6-[2-[2-(1-methylpyrrol-2-yl)pyrrolidin-1-yl]ethoxy]-3,4-dihydro-1H-quinolin-2-one] | ≥ 100 µM | 1 to 10 µM
9 | CN(CCOc1ccc2c(c1)CCC(=O)N2)Cc1ccccn1 [ALDHI-3012, 6-[2-[methyl(2-pyridylmethyl)amino]ethoxy]-3,4-dihydro-1H-quinolin-2-one] | ≥ 100 µM | 1 to 10 µM
10 | O=C1COc2cc(OCCN3CCCC3c3ccccn3)ccc2N1 (stereo not shown) [ALDHI-2025, 7-[2-[2-(2-pyridyl)pyrrolidin-1-yl]ethoxy]-4H-1,4-benzoxazin-3-one] | ≥ 100 µM | 1 to 10 µM
11 | Cc1nc(-c2cccc(F)c2)c(C(=O)Nc2ccc3c(c2)CCC(=O)N3)s1 [ALDHI-1026, 4-(3-fluorophenyl)-2-methyl-N-(2-oxo-3,4-dihydro-1H-quinolin-6-yl)thiazole-5-carboxamide] | ≥ 100 µM | < 0.1 µM
12 | Cn1cc(C2CCCN2CCOc2ccc3c(c2)OCC(=O)N3)cn1 (stereo not shown) [ALDHI-2024, 7-[2-[2-(1-methylpyrazol-4-yl)pyrrolidin-1-yl]ethoxy]-4H-1,4-benzoxazin-3-one] | ≥ 100 µM | 1 to 10 µM
13 | CS(=O)(=O)N1CCN(CCOc2ccc3c(c2)CCC(=O)N3)C(c2ccccc2)C1 (stereo not shown) [ALDHI-2046, 6-[2-(4-methylsulfonyl-2-phenyl-piperazin-1-yl)ethoxy]-3,4-dihydro-1H-quinolin-2-one] | 10 to 100 µM | 1 to 10 µM
14 | O=C1CCc2cc(NC(=O)c3scnc3-c3cccc(F)c3)c(F)cc2N1 [ALDHI-1025, N-(7-fluoro-2-oxo-3,4-dihydro-1H-quinolin-6-yl)-4-(3-fluorophenyl)thiazole-5-carboxamide] | ≥ 100 µM | < 0.1 µM
15 | Cc1nn(C)cc1C1CCCN1CCOc1ccc2c(c1)CCC(=O)N2 (stereo not shown) [ALDHI-2015, 6-[2-[2-(1,3-dimethylpyrazol-4-yl)pyrrolidin-1-yl]ethoxy]-3,4-dihydro-1H-quinolin-2-one] | ≥ 100 µM | 1 to 10 µM
16 | Cc1onc(-c2cccc(F)c2)c1C(=O)Nc1ccc2c(c1)CCC(=O)N2 [ALDHI-1009, 3-(3-fluorophenyl)-5-methyl-N-(2-oxo-3,4-dihydro-1H-quinolin-6-yl)isoxazole-4-carboxamide] | ≥ 100 µM | 1 to 10 µM
17 | Cn1cc(CN(CCO)CCOc2ccc3c(c2)CCC(=O)N3)cn1 [ALDHI-3011, 6-[2-[2-hydroxyethyl-[(1-methylpyrazol-4-yl)methyl]amino]ethoxy]-3,4-dihydro-1H-quinolin-2-one] | 10 to 100 µM | 1 to 10 µM

Source: US20240174634A1, “Aldehyde Dehydrogenase Inhibitors and Their Therapeutic Use” (priority 2020, published 2024)
